How the values were obtained:
[1] = test system: Pancreatic CSCs; assay: apoptosis; assay type: cell-based, human
Procedure: (A and B) Induction of apoptosis and activation of caspase-3/-7. Pancreatic CSCs were treated with rottlerin (0-2 μM) for 48 h, and apoptosis and caspase-3/-7 activity were measured by […] and colorometric assay, respectively. […] (C) Pancreatic CSCs were treated with rottlerin (0-1 μM) for 48 h, and the expression of Bcl-2, XIAP and Survivin was measured by qRT-PCR and normalized to GAPDH.
(A) Pancreatic CSCs were treated with SAHA (3 and 5 μM) and 5-Aza-dc (2 and 4 μM) and cell viability was measured at 48 h by staining with trypan blue using Vi-CELL analyzer (Beckman Counter). (B) Pancreatic CSCs were untreated (a) or treated with SAHA (b) or 5-Aza-dC (c) for 48 h, and apoptosis was measured by staining with annexin-PI using Accuri Flow Cytometer. (C) Caspase-3/7 activity was measured in pancreatic CSCs treated with SAHA (0.5 and 2 μM) or 5-Aza-dC (1 and 3 μM) for 25 h.
(A) Regulation of caspase-3/7 activity by EGCG. CSCs were treated with EGCG (0-60 μM) for 24 h, and caspase-3/7 activity was measured as per manufacturer's instructions. […] (B) Regulation of apoptosis by EGCG. CSCs were treated with EGCG (0-60 μM) for 48 h, and apoptosis was measured by TUNEL assay. […] (C) Regulation of apoptosis-related proteins. Pancreatic CSCs were treated with EGCG (0-60 μM) for 36 h. Real time PCR (q-RT-PCR) was performed to examine the expression of Bcl-2, survivin, XIAP, and GAPDH.
FIG. 42A and FIG. 42B show graphs showing quercetin synergizes with EGCG to inhibit self-renewal capacity, invasion, migration, and TCF/LEF and Gli transcriptional activities in pancreatic CSCs. (A) Effects of EGCG and quercetin on spheroid and colony formation. Upper Panel, uercetin synergizes with EGCG to inhibit spheroid's cell viability. CSCs were seeded in suspension and treated with EGCG (0-60 μM) with or without quercetin (20 μM) for 7 days. At the end of incubation period, all the spheroids were collected and resuspended. Cell viability was measured by trypan blue assay. […] Lower panel, uercetin synergizes with EGCG to inhibit colony formation. Pancreatic CSCs were seeded in soft agar and treated with various doses of EGCG (0-60 μM) with or without quercetin (20 μM) and incubated at […] for 21 days. At the end of incubation period, colonies were counted. […] (B) Effects of EGCG and quercetin on invasion and migration. Upper panel, Matrigel invasion assay. CSCs were plated onto the Matrigel-coated membrane in the top chamber of the transwell and treated with EGCG (0-60 μM) with or without quercetin (20 μM) for 48 hrs. Cells invaded to the lower chambered were fixed with methanol, stained with crystal violet and counted. […] Lower panel, Transwell migration assay. Pancreatic CSCs were plated in the top chamber of the transwell and treated with EGCG (0-60 μM) with or without quercetin (20 μM) for 48 hrs. Cells migrated to the lower chambered were fixed with methanol, stained with crystal violet and counted. […] (C) Quercetin synergizes with EGCG to induce apoptosis. CSCs were seeded in suspension and treated with EGCG (0-60 μM) with or without quercetin (20 μM) for 7 days. At the end of incubation period, all the spheroids were collected. Apoptosis was measured by TUNEL assay. […] (D) Effects of EGCG and quercetin on TCF/LEF and Gli transcriptional activities. Pancreatic CSCs were transduced with either lentivirus encoding TCF/LEF responsive GFP and luciferase genes or Gli-responsive GFP and luciferase genes. Transduced CSCs were treated with EGCG (40 μM) with or without quercetin (20 μM) for 48 hrs and the luciferase activity was measured.
Pancreatic CSCs were (a) untreated, (b) treated with SAHA, or (c) treated with 5-Aza-dC for 48 hours and apoptosis was measured by staining with annexin-PI using Accuri Flow Cytometer. The results of those studies are illustrated in FIG. 31B.

[2] = test system: Breast CSCs; assay: cell viability by XTT assay; assay type: cell-based; conditions: 3 days
Procedure: Breast CSCs were seeded in 96-well plate and treated with sulforaphane, diallyl trisulphide, resveratrol and curcumin for 3 days. At the end of incubation period, CSCs were harvested and cell viability was measured by XTT assay.
Breast CSCs were seeded in 96-well plate and treated with rottlerin, EGCG, embelin, and honokiol for 3 days. At the end of incubation period, breast CSCs were harvested and cell viability was measured by XTT assay.
(A-D) Breast CSCs were treated with PITC (0-20 μM), BSC, (0-20 μM), sulforaphane (0-20 μM) and honokiol (0-10 μM) for 3 days, and cell viability was measured by XTT assay.
Breast CSCs were treated with rottlerin (0-1 μM) for 3 days, and cell viability was measured by XTT assay.
Breast CSCs were seeded in 96-well plate and treated with sulforaphane, diallyl trisulphide, resveratrol, and curcumin for 3 days and cell viability was measured by XTT assay. The results of those studies are illustrated in FIG. 29.
Breast CSCs were seeded in 96-well plate and treated with Rottlerin, EGCG, embelin, and honokiol for 3 days and cell viability was measured by XTT assay. The results of those studies are illustrated in FIG. 30.

[3] = test system: Prostate CSCs; assay: cell viability, trypan blue, Vi-CELL analyzer; assay type: cell-based, human; conditions: 3 days
Procedure: Prostate CSCs were treated with resveratrol (0-20 μM), curcumin (0-20 μM), honokiol (0-20 μM) and diallyl trisulphide (0-10 μM) for 3 days, and cell viability was measured by staining with trypan blue using Vi-CELL analyzer (Beckman Counter).
Prostate CSCs were treated with sulforaphane (0-20 μM), rottlerin (0-5 μM), EGCG (0-40 μM) and embelin (0-1 μM) for 3 days, and cell viability was measured by staining with trypan blue using Vi-CELL analyzer (Beckman Counter).
Prostate CSCs were treated with resveratrol (0-20 μM), curcumin (0-20 μM), honokiol (0-20 μM), and diallyl trisulphide (0-10 μM) for 3 days and cell viability was measured by staining with trypan blue using Vi-CELL analyzer. The results of those studies are illustrated in FIG. 25.
Prostate CSCs were treated with sulforaphane (0-20 μM), rottlerin (0-5 μM), EGCG (0-40 μM), and embelin (0-1 μM) for 3 days and cell viability was measured by staining with trypan blue using Vi-CELL analyzer. The results of those studies are illustrated in FIG. 26.

[4] = EGCG 0-60 μM with or without quercetin 20 μM, 7 days, spheroids, TUNEL assay

**Q.** Which apoptosis [1, 4] does the source give for `O=C(O[C@@H]1Cc2c(O)cc(O)cc2O[C@@H]1c1cc(O)c(O)c(O)c1)c1cc(O)c(O)c(O)c1` [EGCG, epigallocatechin gallate] here?
**A.** induced apoptosis

**Q.** And the apoptosis ([1]; EGCG 0-60 μM, 48 h, TUNEL assay)?
**A.** induced caspase-3/7 activity and apoptosis in pancreatic CSCs in a dose-dependent manner

**Q.** What about the cell viability [2] of the same compound?
**A.** inhibit cell viability

**Q.** What about the cell viability [3] of the same compound?
**A.** inhibit cell viability

**Q.** `O=c1c(O)c(-c2ccc(O)c(O)c2)oc2cc(O)cc(O)c12` [quercetin] was tested. Which apoptosis [1, 4] did it give?
**A.** induced apoptosis

**Q.** With `CC(=O)c1c(O)c(C)c(O)c(Cc2c(O)c3c(c(C(=O)/C=C/c4ccccc4)c2O)OC(C)(C)C=C3)c1O` [rottlerin] as the compound, how does the apoptosis ([1]; rottlerin 0-2 μM, 48 h) read?
**A.** induced

**Q.** What about the cell viability [2] of the same compound?
**A.** inhibits cell viability

**Q.** What about the cell viability [3] of the same compound?
**A.** inhibit cell viability

**Q.** Which results are given for `C[S+]([O-])CCCCN=C=S` (stereo not shown) [sulforaphane]?
**A.** cell viability [2]: inhibit cell viability; cell viability [3]: inhibit cell viability

From US20160374944A1, “COMPOSITIONS AND METHODS FOR TREATING AND PREVENTING CANCER BY TARGETING AND INHIBITING CANCER STEM CELLS” (priority 2011, published 2016)
